Source: PubChem BioAssay AID1626 (SRMLSC, 2009)

Tested on: M. tuberculosis H37Rv growth inhibition
Test: M. tuberculosis H37Rv growth inhibitors, H37Rv strain (AID 1626)
Conditions: for IC90: measured here: IC90 against H37Rv; for CC50: measured here: Vero cell cytotoxicity

Structure (SMILES)	IC50 [µM]	IC90 [µM]	CC50 [µM]
CCOC(=O)N1C/C(=C\c2ccccc2)C(=O)/C(=C/c2ccccc2)C1	2.11	> 100	19.3
COc1ccc(/C=C/C(=O)Oc2ccc(C)c(C)c2)cc1OC	9.43	> 100	–
CCOC(=O)C(C)Sc1ncc(-c2ccc(Cl)cc2)cn1 (stereo not drawn)	2.71	5.04	–
O=C(O)c1ccc(N2C(=O)/C(=C/c3ccc(-c4ccc([N+](=O)[O-])cc4)o3)C=C2c2ccccc2)cc1	19	26.5	20.1
Clc1ccc(COC(Cn2ccnc2)c2ccc(Cl)cc2Cl)cc1 (stereo not drawn)	3.74	5.68	33.1
Cc1ccc(C(=O)/C=C/c2ccccc2[N+](=O)[O-])cc1	4.21	7.62	26.5
COC(=O)[C@H](NC(=O)c1cc(-c2ccccc2)nc2ccccc12)c1ccccc1	1.69	3.37	–
O=C1c2ccccc2-n2c1nc1ccccc1c2=O	< 0.195	0.601	> 40
c1ccc(CN2CCN(c3nc(NCc4ccco4)c4ccccc4n3)CC2)cc1	7.96	10.3	35.1
O=C(OCc1ccc(F)cc1)c1ccc2ccccc2n1	8.16	14.4	–
CCn1ccnc1CN(C)Cc1cn(-c2ccc(C)cc2)nc1-c1ccc(F)cc1	5.81	6.72	> 40
CN1/C(=C/C(=O)c2nc(S(C)(=O)=O)ncc2Cl)C(C)(C)c2ccccc21	12	13.7	> 40
O=C(Nc1nccs1)c1sc2ccccc2c1Cl	15.1	> 100	> 40
CC(C)c1ccc(CNC(=O)C(=O)Nc2nccs2)cc1	49.8	> 100	–
O=C(Nc1ccc(F)cc1F)Nc1csc2ccccc12	< 0.391	52.7	> 40
O=C(/C=C/c1ccccc1)/C=C/c1ccccc1	5.86	6.68	31.2
Cn1c(=O)[nH]c(=O)c2c1nc(N1CCCCC1)n2CCCSc1nc2ccccc2s1	–	–	> 40
CCOC(=O)Cc1csc(NC(=O)c2csc3c2CCCC3)n1	9.18	12.5	> 40
Cc1nnc(NC(=O)c2ccc3ccccc3n2)s1	42.5	> 100	> 40

Structure (SMILES)	IC50 [µM]	IC90 [µM]	CC50 [µM]
O=C(NC(=O)c1ccc(C(F)(F)F)cc1)Nc1ccc(-c2cnco2)cc1	49.6	> 100	> 40
CCOC(=O)c1ccc(NC(=O)c2ccc(OC(C)C)c(OC)c2)cc1	14.1	28.2	–
Cc1[nH]c2ccccc2c1C1=NNC(=Nc2ccc(F)cc2)SC1	13.3	49.8	> 40
CC1CC(C)(C)Nc2ccc(OC(=O)c3ccco3)cc21 (stereo not drawn)	15.9	22.2	> 40
COc1cccc(CNCCc2c[nH]c3ccccc23)c1OCc1ccccc1F	7.08	11.3	14.4
CC(=O)Nc1ccc(Nc2cc(C(C)C)nc3c(-c4ccccc4)c(C)nn23)cc1	5.08	9	> 40
O=C(COc1ccc2c(c1)OCO2)Nc1ccc2c(c1)oc1ccccc12	–	> 100	> 40
Cc1ccc(C2CC(C(F)(F)F)n3nc(C(=O)NCc4ccco4)cc3N2)cc1 (stereo not drawn)	0.92	1.79	–
COc1ccc(NC(=O)CCCSc2ccccc2)cc1	–	> 100	–
COc1ccc(C(=O)Nc2cc(OC)c(NC(=O)c3ccco3)cc2OC)cc1	2.85	9.59	–
Cc1ccn2c(NC3CCCC3)c(-c3ccccn3)nc2c1	3.19	5.24	8.93
Cc1cc2oc3c(c(=O)c2cc1C)C(c1cccc(Br)c1)N(Cc1ccco1)C3=O (stereo not drawn)	5.92	> 100	13.9
O=[N+]([O-])c1cc(CN2CCCC2)ccc1Sc1ccc(Cl)cc1	29.8	> 100	> 40
O=C(CCCC(=O)OCC(=O)c1cccs1)Nc1ccc(Oc2ccccc2)cc1	17.4	> 100	–
Fc1ccc(C(OCCN2CCN(CCCc3ccccc3)CC2)c2ccc(F)cc2)cc1	4.22	5.59	19.2
Cc1cc(/C=N/n2cnnc2)c(C)n1-c1ccc(OCc2ccc(Cl)cc2Cl)cc1	8.02	15	21.6
Cn1nnnc1SCC(=O)Nc1nc(-c2ccccc2)c(-c2ccccc2)o1	35.6	> 100	> 40
COc1ccc(-c2cc(O)cc(O)c2)cc1	8.79	> 100	–
CC(C)OC(=O)CSc1nnc(-c2ccc(Cl)cc2Cl)o1	< 0.195	9.2	–
